This is an account of results in US7943619B2, “Isoxazolo-pyridazine derivatives” (priority 2007, dated 2011).

The test concerns the target human GABA A receptor α5β3γ2 (α5 subunit) (Homo sapiens, UniProt P18507+P31644). The test can be described thus: biochemical. The test is classed as binding. The procedure:
The affinity of compounds at GABA A receptor subtypes was measured by competition for [3H]flumazenil (85 Ci/mmol; Roche) binding to HEK293 cells expressing rat (stably transfected) or human (transiently transfected) receptors of composition α1β3γ2, α2β3γ2, α3β3γ2 and α5β3γ2.
Cell pellets were suspended in Krebs-tris buffer (4.8 mM KCl, 1.2 mM CaCl2, 1.2 mM MgCl2, 120 mM NaCl, 15 mM Tris; pH 7.5; binding assay buffer), homogenized by polytron for ca. 20 sec on ice and centrifuged for 60 min at 4° C. (50000 g; Sorvall, rotor: SM24=20000 rpm). The cell pellets were resuspended in Krebs-tris buffer and homogenized by polytron for ca. 15 sec on ice. Protein was measured (Bradford method, Bio-Rad) and aliquots of 1 mL were prepared and stored at −80° C.
Assays were incubated to equilibrium for 1 hour at 4° C. and harvested onto GF/C uni-filters (Packard) by filtration using a Packard harvester and washing with ice-cold wash buffer (50 mM Tris; pH 7.5). After drying, filter-retained radioactivity was detected by liquid scintillation counting. Ki values were calculated using Excel-Fit (Microsoft) and are the means of two determinations.

[1] abbreviates: competition for [3H]flumazenil binding, HEK293 cells transiently expressing human receptors, means of two determinations, read-out: hKi.

Like-named read-outs stand apart in the source and are kept apart here.

human GABA A receptor α5β3γ2 (α5 subunit), sequence (P31644 32-462): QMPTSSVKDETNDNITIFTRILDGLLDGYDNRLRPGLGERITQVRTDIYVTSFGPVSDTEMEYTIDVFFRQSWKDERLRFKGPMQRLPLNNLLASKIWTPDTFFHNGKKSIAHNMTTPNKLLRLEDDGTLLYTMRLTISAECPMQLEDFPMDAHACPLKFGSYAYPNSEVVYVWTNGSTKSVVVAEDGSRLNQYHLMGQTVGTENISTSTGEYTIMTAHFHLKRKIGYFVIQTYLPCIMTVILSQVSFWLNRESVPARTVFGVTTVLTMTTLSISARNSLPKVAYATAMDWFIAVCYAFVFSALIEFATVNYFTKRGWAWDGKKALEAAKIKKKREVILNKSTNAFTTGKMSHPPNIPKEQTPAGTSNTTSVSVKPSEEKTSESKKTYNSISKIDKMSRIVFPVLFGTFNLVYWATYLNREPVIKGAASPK
human GABA A receptor α5β3γ2 (α5 subunit), sequence (P28472 26-473 partner): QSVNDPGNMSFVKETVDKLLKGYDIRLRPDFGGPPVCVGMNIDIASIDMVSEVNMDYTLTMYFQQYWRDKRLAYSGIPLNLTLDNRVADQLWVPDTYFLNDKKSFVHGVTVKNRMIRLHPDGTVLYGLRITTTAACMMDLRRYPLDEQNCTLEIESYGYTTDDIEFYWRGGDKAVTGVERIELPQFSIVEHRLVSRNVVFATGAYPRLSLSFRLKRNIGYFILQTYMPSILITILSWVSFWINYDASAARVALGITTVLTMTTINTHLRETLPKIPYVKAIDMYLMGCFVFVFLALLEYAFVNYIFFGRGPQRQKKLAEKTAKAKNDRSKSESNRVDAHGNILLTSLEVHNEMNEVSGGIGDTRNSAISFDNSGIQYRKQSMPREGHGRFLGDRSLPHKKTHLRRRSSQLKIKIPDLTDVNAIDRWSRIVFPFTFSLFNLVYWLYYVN
human GABA A receptor α5β3γ2 (α5 subunit), sequence (P18507 40-475): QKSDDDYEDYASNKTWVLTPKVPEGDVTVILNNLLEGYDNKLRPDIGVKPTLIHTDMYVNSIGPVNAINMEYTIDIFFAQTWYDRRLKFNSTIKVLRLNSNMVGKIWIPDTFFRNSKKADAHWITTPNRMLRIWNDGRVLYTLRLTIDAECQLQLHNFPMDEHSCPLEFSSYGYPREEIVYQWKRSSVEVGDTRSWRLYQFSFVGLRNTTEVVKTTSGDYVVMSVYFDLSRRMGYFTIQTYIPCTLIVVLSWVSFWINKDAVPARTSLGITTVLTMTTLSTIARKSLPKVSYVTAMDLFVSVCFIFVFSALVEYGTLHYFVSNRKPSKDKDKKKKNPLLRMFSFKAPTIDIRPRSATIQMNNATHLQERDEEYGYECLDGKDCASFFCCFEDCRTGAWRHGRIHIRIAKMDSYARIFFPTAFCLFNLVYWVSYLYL

As for `Cc1onc(-c2cccc(F)c2)c1COc1ccc(C(=O)NC(C)C)nn1` [Example 54, 6-[3-(3-Fluoro-phenyl)-5-methyl-isoxazol-4-ylmethoxy]-pyridazine-3-carboxylic acid isopropylamide], the Ki under setting [1] came to 8.4 nM.
Turning to `Cc1onc(-c2cccc(F)c2)c1COc1ccc(C(=O)NC2CC2)nn1` [Example 55, 6-[3-(3-Fluoro-phenyl)-5-methyl-isoxazol-4-ylmethoxy]-pyridazine-3-carboxylic acid cyclopropylamide], under setting [1], the Ki stood at 6.7 nM.
Take `Cc1onc(-c2ccc(F)cc2)c1COc1ccc(Cl)nn1` [Example 57, 3-Chloro-6-[3-(4-fluoro-phenyl)-5-methyl-isoxazol-4-ylmethoxy]-pyridazine]: the Ki under setting [1] was found to be 4.6 nM.
As to `CCOC(=O)c1ccc(OCc2c(-c3ccc(F)cc3)noc2C)nn1` [Example 58, 6-[3-(4-Fluoro-phenyl)-5-methyl-isoxazol-4-ylmethoxy]-pyridazine-3-carboxylic acid ethyl ester], the Ki under setting [1] came to 3.3 nM.
In the case of `Cc1onc(-c2ccc(F)cc2)c1COc1ccc(C(=O)NCC2CC2)nn1` [Example 59, 6-[3-(4-Fluoro-phenyl)-5-methyl-isoxazol-4-ylmethoxy]-pyridazine-3-carboxylic acid cyclopropylmethyl-amide], the Ki under setting [1] stood at 4.6 nM.
Take `Cc1onc(-c2ccc(F)cc2)c1COc1ccc(C(=O)NCC(F)(F)F)nn1` [Example 60, 6-[3-(4-Fluoro-phenyl)-5-methyl-isoxazol-4-ylmethoxy]-pyridazine-3-carboxylic acid (2,2,2-trifluoro-ethyl)-amide]: under setting [1], the Ki is 3.5 nM.
With `Cc1onc(-c2ccc(F)cc2)c1COc1ccc(C(=O)NC2CC2)nn1` [Example 62, 6-[3-(4-Fluoro-phenyl)-5-methyl-isoxazol-4-ylmethoxy]-pyridazine-3-carboxylic acid cyclopropylamide], under setting [1], the Ki was 1.7 nM.
As for `Cc1onc(-c2ccc(F)cc2)c1COc1ccc(C(=O)NC2CCOCC2)nn1` [Example 63, 6-[3-(4-Fluoro-phenyl)-5-methyl-isoxazol-4-ylmethoxy]-pyridazine-3-carboxylic acid (tetrahydro-pyran-4-yl)-amide], under setting [1], the Ki amounted to 2.4 nM.
As for `Cc1onc(-c2ccc(F)cc2)c1COc1ccc(C(=O)N2CCS(=O)(=O)CC2)nn1` [Example 66, (1,1-Dioxo-1λ6-thiomorpholin-4-yl)-{6-[3-(4-fluoro-phenyl)-5-methyl-isoxazol-4-ylmethoxy]-pyridazin-3-yl}-methanone], under setting [1], the Ki was determined as 11.7 nM.
Regarding `Cc1onc(-c2ccccc2)c1COc1ccc2nncn2n1` [Example 86, 6-(5-Methyl-3-phenyl-isoxazol-4-ylmethoxy)-[1,2,4]triazolo[4,3-b]pyridazine], the Ki under setting [1] was 6.6 nM.
Same read-out and setting: next, `Cc1onc(-c2ccc(F)cc2)c1COc1ccc2nncn2n1` [Example 91, 6-[3-(4-Fluoro-phenyl)-5-methyl-isoxazol-4-ylmethoxy]-[1,2,4]triazolo[4,3-b]pyridazine]: 7.5 nM; `Cc1onc(-c2ccccn2)c1COc1ccc(Cl)nn1` [Example 92, 3-Chloro-6-(5-methyl-3-pyridin-2-yl-isoxazol-4-ylmethoxy)-pyridazine]: 3.8 nM; `CCOC(=O)c1ccc(OCc2c(-c3ccccn3)noc2C)nn1` [Example 93, 6-(5-Methyl-3-pyridin-2-yl-isoxazol-4-ylmethoxy)-pyridazine-3-carboxylic acid ethyl ester]: 2.9 nM.
Regarding `Cc1onc(-c2ccccn2)c1COc1ccc(C(=O)NC2CCOCC2)nn1` [Example 94, 6-(5-Methyl-3-pyridin-2-yl-isoxazol-4-ylmethoxy)-pyridazine-3-carboxylic acid (tetrahydro-pyran-4-yl)-amide], the Ki under setting [1] amounted to 2.9 nM.
Consider `Cc1onc(-c2ccccn2)c1COc1ccc(C(=O)NC(C)C)nn1` [Example 95, 6-(5-Methyl-3-pyridin-2-yl-isoxazol-4-ylmethoxy)-pyridazine-3-carboxylic acid isopropylamide], for which the Ki under setting [1] is 2.7 nM.
`Cc1onc(-c2ccccn2)c1COc1ccc(C(=O)N2CCOCC2)nn1` [Example 96, [6-(5-Methyl-3-pyridin-2-yl-isoxazol-4-ylmethoxy)-pyridazin-3-yl]-morpholin-4-yl-methanone] displayed a Ki of 25.9 nM.
`Cc1onc(-c2ccccn2)c1COc1ccc(C(=O)NC2CC2)nn1` [Example 97, 6-(5-Methyl-3-pyridin-2-yl-isoxazol-4-ylmethoxy)-pyridazine-3-carboxylic acid cyclopropylamide]: the Ki under setting [1] stood at 1.6 nM.
In the case of `Cc1onc(-c2ccccn2)c1COc1ccc(C(=O)NCC(F)(F)F)nn1` [Example 98, 6-(5-Methyl-3-pyridin-2-yl-isoxazol-4-ylmethoxy)-pyridazine-3-carboxylic acid (2,2,2-trifluoro-ethyl)-amide], under setting [1], the Ki worked out at 2.8 nM.
Regarding `Cc1onc(-c2ccccn2)c1COc1ccc(C(=O)N2CCS(=O)(=O)CC2)nn1` [Example 99, (1,1-Dioxo-1λ6-thiomorpholin-4-yl)-[6-(5-methyl-3-pyridin-2-yl-isoxazol-4-ylmethoxy)-pyridazin-3-yl]-methanone], the Ki under setting [1] is 18.1 nM.
On the same count and under the same terms, next, `Cc1onc(-c2ccccn2)c1COc1ccc(C(=O)NCC2CC2)nn1` [Example 100, 6-(5-Methyl-3-pyridin-2-yl-isoxazol-4-ylmethoxy)-pyridazine-3-carboxylic acid cyclopropylmethyl-amide]: 4.1 nM; `Cc1onc(-c2ccccn2)c1COc1ccc(C(=O)NCCO)nn1` [Example 101, 6-(5-Methyl-3-pyridin-2-yl-isoxazol-4-ylmethoxy)-pyridazine-3-carboxylic acid (2-hydroxy-ethyl)-amide]: 1.4 nM.
`CNC(=O)c1ccc(OCc2c(-c3ccccn3)noc2C)nn1` [Example 102, 6-(5-Methyl-3-pyridin-2-yl-isoxazol-4-ylmethoxy)-pyridazine-3-carboxylic acid methylamide]: under setting [1], the Ki stood at 0.9 nM.
`CCNC(=O)c1ccc(OCc2c(-c3ccccn3)noc2C)nn1` [Example 103, 6-(5-Methyl-3-pyridin-2-yl-isoxazol-4-ylmethoxy)-pyridazine-3-carboxylic acid ethylamide]: the Ki under setting [1] came out at 1.5 nM.
With `Cc1onc(-c2ccccn2)c1COc1ccc(C(=O)N2CCSCC2)nn1` [Example 104, [6-(5-Methyl-3-pyridin-2-yl-isoxazol-4-ylmethoxy)-pyridazin-3-yl]-thiomorpholin-4-yl-methanone], the Ki under setting [1] is 27.8 nM.
The same measure, in the same setting: next, `Cc1onc(-c2ccccn2)c1COc1ccc(C(=O)NC(C)(C)CO)nn1` [Example 105, 6-(5-Methyl-3-pyridin-2-yl-isoxazol-4-ylmethoxy)-pyridazine-3-carboxylic acid (2-hydroxy-1,1-dimethyl-ethyl)-amide]: 4 nM.
Same read-out and setting: under `COCCNC(=O)c1ccc(OCc2c(-c3ccccn3)noc2C)nn1` [Example 106, 6-(5-Methyl-3-pyridin-2-yl-isoxazol-4-ylmethoxy)-pyridazine-3-carboxylic acid (2-methoxy-ethyl)-amide] stands 1.6 nM.
`Cc1onc(-c2ccncc2)c1COc1ccc(C(=O)NCCO)nn1` [Example 107, 6-(5-Methyl-3-pyridin-4-yl-isoxazol-4-ylmethoxy)-pyridazine-3-carboxylic acid (2-hydroxy-ethyl)-amide]: the Ki under setting [1] turned out to be 23.3 nM.
